Values quoted from earlier work in patent publication US8252778B2, “Highly fluorinated oils and surfactants and methods of making and using same” (University of Utah Research Foundation, priority 2006, dated 2012).

Target: sstr2 (Homo sapiens, UniProt P30874)
Sequence (P30874 whole entry, species assumed): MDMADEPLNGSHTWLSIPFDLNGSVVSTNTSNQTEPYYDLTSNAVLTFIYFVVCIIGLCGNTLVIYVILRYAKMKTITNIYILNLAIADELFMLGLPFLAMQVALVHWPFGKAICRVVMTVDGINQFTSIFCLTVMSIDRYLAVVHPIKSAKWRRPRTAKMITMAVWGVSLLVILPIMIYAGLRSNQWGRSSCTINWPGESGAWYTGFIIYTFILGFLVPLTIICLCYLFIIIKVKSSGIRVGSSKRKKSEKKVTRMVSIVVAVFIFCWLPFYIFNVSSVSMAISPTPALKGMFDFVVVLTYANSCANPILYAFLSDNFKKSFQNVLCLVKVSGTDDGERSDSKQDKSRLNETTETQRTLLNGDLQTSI

In the case of `C[C@@H](O)[C@@H]1NC(=O)[C@H](CCCCN)NC(=O)[C@@H](Cc2c[nH]c3ccccc23)NC(=O)[C@H](Cc2ccccc2)NC(=O)[C@@H](NC(=O)[C@H](N)Cc2ccccc2)CSSC[C@@H](C(=O)N[C@H](CO)[C@@H](C)O)NC1=O` [octreotide, DPhe1-c[Cys2-Phe3-DTrp-4-Lys5-Thr6-Cys7]-Thr8-NH2], the “affinity and specificity for sstr2” value is listed as “high affinity and specificity”.
